Reference: ChEMBL document CHEMBL5154787 (J Med Chem, 2022)

Key:
[1] = Efflux ratio of permeability in human Caco-2 cells; format: ADME, cell-based
[2] = Protein binding in human plasma assessed as unbound fraction measured after 3 hrs by LC/MS/MS analysis; format: ADME, cell-free
[3] = Metabolic stability in human liver microsomes assessed as parent compound remaining at 0.5 uM incubated for 10 mins in presence of NADPH by LC-MS/MS analysis; format: ADME, Microsome; conditions: read-out: Stability
Cytochrome P450 2B6 = target: T1, Cytochrome P450 2B6 (Homo sapiens, UniProt P20813); assay: Inhibition of CYP2B6 (unknown origin) incubated for 10 mins in presence of NADPH by LC-MS/MS analysis; format: ADME
T1 sequence (P20813 whole entry): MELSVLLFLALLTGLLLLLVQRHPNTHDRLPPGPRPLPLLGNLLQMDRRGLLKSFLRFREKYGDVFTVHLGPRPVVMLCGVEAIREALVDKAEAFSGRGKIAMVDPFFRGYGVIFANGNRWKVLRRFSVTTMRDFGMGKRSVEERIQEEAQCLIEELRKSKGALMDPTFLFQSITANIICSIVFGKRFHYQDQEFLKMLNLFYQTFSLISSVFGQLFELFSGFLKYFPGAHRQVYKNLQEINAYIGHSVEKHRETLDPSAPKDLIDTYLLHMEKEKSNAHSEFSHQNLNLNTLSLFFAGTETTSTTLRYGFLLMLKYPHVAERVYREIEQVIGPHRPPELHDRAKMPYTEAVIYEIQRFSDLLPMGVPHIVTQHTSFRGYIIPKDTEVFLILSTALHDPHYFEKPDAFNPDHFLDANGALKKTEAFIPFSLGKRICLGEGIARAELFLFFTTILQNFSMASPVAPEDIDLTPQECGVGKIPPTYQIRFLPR

[4] = target: AP2-associated protein kinase 1 (Homo sapiens, UniProt Q2M2I8); assay: Inhibition of full length human AAK1 expressed in HEK293F cells assessed as suppression of AP2 phosphorylation measured after 3 hrs by Western blot analysis based cellular assay; format: cell-based
[5] = Metabolic stability in rat liver microsomes assessed as half life incubated at 0.5 uM for 10 mins in presence of NADPH by LC-MS/MS analysis; format: ADME, Microsome
[6] = Metabolic stability in dog microsomes assessed as half life incubated at 0.5 uM for 10 mins in presence of NADPH by LC-MS/MS analysis; format: ADME, Canis lupus familiaris, Liver, Microsome
[7] = Metabolic stability in mouse liver microsomes assessed as parent compound remaining at 0.5 uM incubated for 10 mins in presence of NADPH by LC-MS/MS analysis; format: ADME, Microsome; conditions: for remaining at 10 min, 0.5 µM: liver microsomes, read-out: Stability
[8] = Oral bioavailability in rat at 3 mg/kg or 2 mg/kg,iv; format: ADME, organism-based; conditions: in vivo
[9] = Metabolic stability in mouse liver microsomes assessed as half life incubated at 0.5 uM for 10 mins in presence of NADPH by LC-MS/MS analysis; format: ADME, Microsome; conditions: for half-life at 0.5 µM: liver microsomes
Cytochrome P450 3A4 = Cytochrome P450 3A4 (Homo sapiens, UniProt P08684); assay: Inhibition of […] (unknown origin) using BFC as substrate incubated for 10 mins in presence of NADPH by LC-MS/MS analysis; format: ADME
[10] = Volume of distribution at steady state in rat at 3 mg/kg,po or 2 mg/kg,iv; format: ADME, organism-based; conditions: in vivo
[11] = Permeability of compound at pH 7.4 incubated for 4 hrs by PAMPA assay; format: ADME; conditions: read-out: permeability
Cytochrome P450 2D6 = Cytochrome P450 2D6 (Homo sapiens, UniProt P10635); assay: Inhibition of CYP2D6 (unknown origin) incubated for 10 mins in presence of NADPH by LC-MS/MS analysis; format: ADME
[12] = Metabolic stability in cynomolgus monkey liver microsomes assessed as half life incubated at 0.5 uM for 10 mins in presence of NADPH by LC-MS/MS analysis; format: ADME, Macaca fascicularis, Microsome
Cytochrome P450 2C19 = Cytochrome P450 2C19 (Homo sapiens, UniProt P33261); assay: Inhibition of CYP2C19 (unknown origin) incubated for 10 mins in presence of NADPH by LC-MS/MS analysis; format: ADME
[13] = Inhibition of sodium channel voltage-sensing domain (unknown origin); parameters: species or system Homo sapiens
[14] = target: T2, Cyclin-G-associated kinase (Homo sapiens, UniProt O14976); assay: Inhibition of GAK (unknown origin)
T2 sequence (O14976 whole entry): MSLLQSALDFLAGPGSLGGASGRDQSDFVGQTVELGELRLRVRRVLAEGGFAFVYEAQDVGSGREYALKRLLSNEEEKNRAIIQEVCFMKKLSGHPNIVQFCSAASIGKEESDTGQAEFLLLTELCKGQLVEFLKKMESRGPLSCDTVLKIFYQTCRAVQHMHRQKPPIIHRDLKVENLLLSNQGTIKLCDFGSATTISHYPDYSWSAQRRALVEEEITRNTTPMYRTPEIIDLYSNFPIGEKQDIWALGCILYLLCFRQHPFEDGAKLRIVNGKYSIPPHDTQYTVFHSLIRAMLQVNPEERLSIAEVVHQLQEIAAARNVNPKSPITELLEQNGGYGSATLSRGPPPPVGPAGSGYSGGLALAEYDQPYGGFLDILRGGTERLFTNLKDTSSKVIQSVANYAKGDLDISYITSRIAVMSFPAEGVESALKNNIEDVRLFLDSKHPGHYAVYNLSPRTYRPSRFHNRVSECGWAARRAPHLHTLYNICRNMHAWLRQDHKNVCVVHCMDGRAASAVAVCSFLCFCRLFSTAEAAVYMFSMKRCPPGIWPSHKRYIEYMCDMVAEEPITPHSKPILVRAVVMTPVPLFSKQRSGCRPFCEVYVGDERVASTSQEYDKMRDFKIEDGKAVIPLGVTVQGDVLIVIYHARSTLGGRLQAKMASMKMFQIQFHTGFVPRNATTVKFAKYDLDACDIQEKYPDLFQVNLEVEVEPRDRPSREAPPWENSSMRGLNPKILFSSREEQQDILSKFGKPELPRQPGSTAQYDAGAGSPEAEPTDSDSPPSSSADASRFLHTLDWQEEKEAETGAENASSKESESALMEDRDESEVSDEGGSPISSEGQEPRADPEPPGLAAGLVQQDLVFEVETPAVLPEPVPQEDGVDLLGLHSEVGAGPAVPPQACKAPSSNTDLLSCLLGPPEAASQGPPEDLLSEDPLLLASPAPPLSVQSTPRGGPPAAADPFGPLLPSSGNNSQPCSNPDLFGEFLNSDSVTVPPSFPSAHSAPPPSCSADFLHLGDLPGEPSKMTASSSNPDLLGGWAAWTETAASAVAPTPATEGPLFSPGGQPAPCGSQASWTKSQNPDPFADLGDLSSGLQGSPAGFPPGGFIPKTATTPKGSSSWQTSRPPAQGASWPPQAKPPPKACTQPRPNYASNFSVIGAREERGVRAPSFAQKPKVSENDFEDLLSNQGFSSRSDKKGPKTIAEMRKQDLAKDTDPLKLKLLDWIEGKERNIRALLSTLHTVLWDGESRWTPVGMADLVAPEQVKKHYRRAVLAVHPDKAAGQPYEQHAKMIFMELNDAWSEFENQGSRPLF

[15] = target: MAP kinase-interacting serine/threonine-protein kinase 2 (Homo sapiens, UniProt Q9HBH9); assay: Inhibition of MNK2 (unknown origin)
[16] = Permeability across basolateral to apical side in human Caco-2 cells; format: ADME, cell-based; conditions: read-out: permeability

Sequence of Cytochrome P450 3A4 (P08684 whole entry): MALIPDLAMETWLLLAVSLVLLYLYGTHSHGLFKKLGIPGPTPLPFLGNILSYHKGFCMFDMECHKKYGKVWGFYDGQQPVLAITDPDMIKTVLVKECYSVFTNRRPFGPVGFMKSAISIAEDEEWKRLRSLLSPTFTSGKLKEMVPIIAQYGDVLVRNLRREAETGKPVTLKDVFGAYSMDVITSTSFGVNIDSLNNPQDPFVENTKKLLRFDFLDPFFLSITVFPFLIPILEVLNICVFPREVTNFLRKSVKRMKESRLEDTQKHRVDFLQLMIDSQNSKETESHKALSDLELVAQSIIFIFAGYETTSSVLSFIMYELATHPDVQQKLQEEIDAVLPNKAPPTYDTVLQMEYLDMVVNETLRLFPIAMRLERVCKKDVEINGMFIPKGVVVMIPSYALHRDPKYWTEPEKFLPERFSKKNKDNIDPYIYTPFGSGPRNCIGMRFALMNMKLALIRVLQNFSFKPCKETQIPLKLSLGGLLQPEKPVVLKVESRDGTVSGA
Sequence of Cytochrome P450 2C19 (P33261 whole entry, the tested form may be a part): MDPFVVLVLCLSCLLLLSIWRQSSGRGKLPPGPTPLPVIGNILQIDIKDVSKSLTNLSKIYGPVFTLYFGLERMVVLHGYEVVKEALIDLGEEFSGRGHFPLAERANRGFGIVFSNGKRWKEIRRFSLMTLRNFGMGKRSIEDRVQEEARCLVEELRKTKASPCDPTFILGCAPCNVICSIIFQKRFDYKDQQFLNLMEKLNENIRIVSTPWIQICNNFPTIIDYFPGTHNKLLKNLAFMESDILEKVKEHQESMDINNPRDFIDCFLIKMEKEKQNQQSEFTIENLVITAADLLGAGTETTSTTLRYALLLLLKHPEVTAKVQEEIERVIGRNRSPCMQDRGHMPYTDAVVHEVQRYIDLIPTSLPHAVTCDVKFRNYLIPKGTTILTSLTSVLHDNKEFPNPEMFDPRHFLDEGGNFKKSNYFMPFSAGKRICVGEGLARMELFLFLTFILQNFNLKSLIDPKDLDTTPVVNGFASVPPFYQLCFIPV
Sequence of AP2-associated protein kinase 1 (Q2M2I8 whole entry): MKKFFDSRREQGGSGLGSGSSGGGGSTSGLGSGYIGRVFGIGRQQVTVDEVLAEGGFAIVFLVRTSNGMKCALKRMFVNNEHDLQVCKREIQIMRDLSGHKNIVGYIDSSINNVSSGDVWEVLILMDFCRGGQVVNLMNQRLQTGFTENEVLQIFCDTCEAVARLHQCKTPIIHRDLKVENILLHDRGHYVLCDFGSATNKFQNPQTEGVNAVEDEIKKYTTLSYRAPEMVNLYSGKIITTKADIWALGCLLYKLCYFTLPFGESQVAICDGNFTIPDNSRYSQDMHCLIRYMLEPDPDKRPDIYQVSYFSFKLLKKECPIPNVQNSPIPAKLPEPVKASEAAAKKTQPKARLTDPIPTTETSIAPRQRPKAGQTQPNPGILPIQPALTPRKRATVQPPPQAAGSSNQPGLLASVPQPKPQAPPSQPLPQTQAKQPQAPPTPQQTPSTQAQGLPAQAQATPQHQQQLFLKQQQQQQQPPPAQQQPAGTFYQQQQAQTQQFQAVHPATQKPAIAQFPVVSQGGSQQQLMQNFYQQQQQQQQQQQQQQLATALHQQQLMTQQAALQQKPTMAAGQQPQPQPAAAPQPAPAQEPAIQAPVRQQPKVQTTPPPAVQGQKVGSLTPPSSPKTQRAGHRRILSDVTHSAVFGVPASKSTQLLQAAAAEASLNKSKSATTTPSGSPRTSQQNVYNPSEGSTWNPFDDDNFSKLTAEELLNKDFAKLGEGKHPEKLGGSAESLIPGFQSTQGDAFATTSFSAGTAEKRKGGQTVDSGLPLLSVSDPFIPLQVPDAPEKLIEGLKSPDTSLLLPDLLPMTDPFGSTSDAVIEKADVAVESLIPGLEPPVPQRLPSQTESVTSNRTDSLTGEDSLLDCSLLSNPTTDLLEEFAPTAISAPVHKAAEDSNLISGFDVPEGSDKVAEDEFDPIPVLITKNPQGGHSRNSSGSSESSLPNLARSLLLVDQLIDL
Sequence of Cytochrome P450 2D6 (P10635 whole entry): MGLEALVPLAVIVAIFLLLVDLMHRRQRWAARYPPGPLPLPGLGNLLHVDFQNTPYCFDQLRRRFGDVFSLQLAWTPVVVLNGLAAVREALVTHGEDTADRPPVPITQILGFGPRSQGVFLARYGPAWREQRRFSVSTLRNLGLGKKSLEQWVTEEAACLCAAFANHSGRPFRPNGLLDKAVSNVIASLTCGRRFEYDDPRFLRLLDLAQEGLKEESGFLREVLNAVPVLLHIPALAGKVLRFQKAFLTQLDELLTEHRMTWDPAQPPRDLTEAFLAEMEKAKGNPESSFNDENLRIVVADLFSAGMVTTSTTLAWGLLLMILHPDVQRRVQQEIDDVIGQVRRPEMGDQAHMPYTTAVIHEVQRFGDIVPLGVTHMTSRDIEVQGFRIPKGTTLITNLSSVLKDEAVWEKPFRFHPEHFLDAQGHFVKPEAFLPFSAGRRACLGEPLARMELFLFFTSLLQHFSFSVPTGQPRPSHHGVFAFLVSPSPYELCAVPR
Sequence of MAP kinase-interacting serine/threonine-protein kinase 2 (Q9HBH9 whole entry): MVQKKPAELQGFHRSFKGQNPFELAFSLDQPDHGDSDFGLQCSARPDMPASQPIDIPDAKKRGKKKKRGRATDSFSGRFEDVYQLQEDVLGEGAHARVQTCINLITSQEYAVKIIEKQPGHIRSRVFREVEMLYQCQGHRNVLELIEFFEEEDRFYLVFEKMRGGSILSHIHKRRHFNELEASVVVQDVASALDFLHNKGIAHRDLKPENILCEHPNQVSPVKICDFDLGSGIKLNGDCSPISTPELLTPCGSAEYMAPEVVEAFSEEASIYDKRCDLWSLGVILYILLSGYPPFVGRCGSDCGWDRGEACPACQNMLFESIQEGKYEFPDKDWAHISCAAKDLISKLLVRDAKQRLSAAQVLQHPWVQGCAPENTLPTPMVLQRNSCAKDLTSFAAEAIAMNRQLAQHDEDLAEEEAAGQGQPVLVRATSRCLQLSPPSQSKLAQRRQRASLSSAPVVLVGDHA

Structure (SMILES) | efflux ratio [1] | fraction unbound at 3 h [2] | remaining at 10 min, 0.5 µM [3] | IC50 (Cytochrome P450 2B6) | IC50 [4] | half-life at 0.5 µM [5] | half-life at 0.5 µM [6] | bioavailability [8] | IC50 (Cytochrome P450 3A4) | Vdss [10] | Papp at 4 h [11] | IC50 (Cytochrome P450 2D6) | half-life at 0.5 µM [12] | IC50 (Cytochrome P450 2C19) | IC50 [13] | IC50 [14] | IC50 [15] | Papp B→A [16] | remaining at 10 min, 0.5 µM [7] | half-life at 0.5 µM [9] | further results
COC(=O)Nc1cc(-c2cnc(OC[C@@](C)(N)CC(C)C)c(C)c2)ccn1 | 1 | 0.115 | 92% | > 20 µM | 0.0034 µM | 0.7 h | > 2 h | 77% | > 20 µM | 30.9 L/kg | 69.7 ×10⁻⁶ cm/s | > 20 µM | 1.28 h | > 20 µM | 11.5 µM | 0.44 µM | 1.3 µM | 17.3 ×10⁻⁶ cm/s | – | – | Stability ([7]; microsomes, 10 min, 0.5 µM): 68%; t1/2 ([9]; microsomes, 10 min, 0.5 µM): 0.9 h
COC(=O)Nc1cc(-c2ccc(OC[C@@](C)(N)CC(C)C)c(C)n2)ccn1 | 1.1 | 0.18 | 95% | > 20 µM | 0.0024 µM | 1.42 h | 1.68 h | 94% | > 20 µM | 16.3 L/kg | 86.4 ×10⁻⁶ cm/s | > 20 µM | 0.85 h | > 20 µM | 39 µM | 0.21 µM | 1.5 µM | 38.4 ×10⁻⁶ cm/s | 93% | 1.53 h | –
CC(C)C[C@](C)(N)COc1cnc(-c2ccnc(C(F)F)c2)cc1C(F)F | 0.7 | 0.125 | 89% | > 20 µM | 0.0005 µM | 1.27 h | 0.433 h | 22% | > 20 µM | 41.3 L/kg | 45.8 ×10⁻⁶ cm/s | > 20 µM | 0.293 h | > 20 µM | 7.4 µM | 0.4 µM | 1.6 µM | 15.3 ×10⁻⁶ cm/s | 89% | > 2 h | –
